From PubChem BioAssay (NCI)
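Method: 48-hour compound exposure of cells in 96-well plates, five concentrations, linear interpolation of endpoints. The concentration for full growth arrest is given as TGI.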

Columns and labels:
Assay in all cases: inhibition of tumour cell growth, NCI panel, 48 h
[1] = tested on: 786-0 renal
[2] = tested on: A549 NSCLC
[3] = tested on: ACHN renal
[4] = tested on: CAKI-1 renal
[5] = tested on: CCRF-CEM leukemia
[6] = tested on: COLO 205 colon
[7] = tested on: DLD-1 colon
[8] = tested on: DMS 114 small cell lung
[9] = tested on: DMS 273 small cell lung
[10] = tested on: EKVX NSCLC
[11] = tested on: HCC-2998 colon
[12] = tested on: HCT-116 colon
[13] = tested on: HCT-15 colon
[14] = tested on: HOP-62 NSCLC
[15] = tested on: HOP-92 NSCLC
[16] = tested on: HT29 colon
[17] = tested on: IGROV1 ovarian
[18] = tested on: K-562 leukemia
[19] = tested on: KM12 colon
[20] = tested on: KM20L2 colon
[21] = tested on: LXFL 529 NSCLC
[22] = tested on: M14 melanoma
[23] = tested on: M19-MEL melanoma
[24] = tested on: MALME-3M melanoma
[25] = tested on: MOLT-4 leukemia
[26] = tested on: NCI-H226 lung
[27] = tested on: NCI-H23 lung
[28] = tested on: NCI-H460 lung
[29] = tested on: NCI-H522 lung
[30] = tested on: OVCAR-3 ovarian
[31] = tested on: OVCAR-4 ovarian
[32] = tested on: OVCAR-5 ovarian
[33] = tested on: OVCAR-8 ovarian
[34] = tested on: RPMI-8226 leukemia
[35] = tested on: RXF-631 renal
[36] = tested on: SF-268 CNS
[37] = tested on: SF-539 CNS
[38] = tested on: SK-MEL-28 melanoma
[39] = tested on: SK-OV-3 ovarian
[40] = tested on: SN12C renal
[41] = tested on: SNB-19 CNS
[42] = tested on: SNB-75 CNS
[43] = tested on: SNB-78 CNS
[44] = tested on: SR leukemia
[45] = tested on: SW-620 colon
[46] = tested on: U251 CNS
[47] = tested on: UACC-257 melanoma
[48] = tested on: UACC-62 melanoma
[49] = tested on: UO-31 renal
[50] = tested on: XF 498 CNS

Compound `COc1cccc(/C=C\c2cc(OC)c(OC)c(OC)c2)c1` has a TGI [1] of 71.5 µM, a TGI [2] of over 100 µM and a TGI [3] of over 100 µM. It also gave a TGI [4] of 56.4 µM, a TGI [5] of 22.8 µM and a TGI [6] of 17.3 µM. The TGI [7] was over 100 µM, the TGI [8] was 67.3 µM and the TGI [9] was 39.6 µM. For the same compound, the TGI [10] was over 100 µM, the TGI [11] was 69.5 µM and the TGI [12] was over 100 µM. It also gave a TGI [13] of over 100 µM, a TGI [14] of over 100 µM and a TGI [15] of over 100 µM. For the same compound, the TGI [16] was 67.9 µM, the TGI [17] was over 100 µM and the TGI [18] was 43.7 µM. For the same compound, the TGI [19] was over 100 µM, the TGI [20] was 1.56 µM and the TGI [21] was over 100 µM. The TGI [22] was over 100 µM, the TGI [23] was over 100 µM and the TGI [24] was 42.8 µM. The TGI [25] was 18 µM, the TGI [26] was 83.9 µM and the TGI [27] was 9.4 µM. The TGI [28] was over 100 µM, the TGI [29] was 1.58 µM and the TGI [30] was 79.1 µM. The TGI [31] was over 100 µM, the TGI [32] was 63.6 µM and the TGI [33] was over 100 µM. The TGI [34] was 42.3 µM, the TGI [35] was over 100 µM and the TGI [36] was over 100 µM. It also gave a TGI [37] of over 100 µM, a TGI [38] of 7.15 µM and a TGI [39] of over 100 µM. The TGI [40] was over 100 µM, the TGI [41] was over 100 µM and the TGI [42] was 20.4 µM. The TGI [43] was 58.9 µM, the TGI [44] was 27.5 µM and the TGI [45] was over 100 µM. It also gave a TGI [46] of 23 µM, a TGI [47] of 47.3 µM and a TGI [48] of over 100 µM. The TGI [49] was 33 µM and the TGI [50] was 35.8 µM.
